This note sets out measurements from US7988950B2, “Contrast agents endowed with high relaxivity for use in magnetic resonance imaging (MRI) which contain a chelating moiety with polyhydroxylated substituents” (Bracco Imaging S.p.A., priority 2004, dated 2011).

A short description of one data set: Relaxivity determination (r1p) of Gd complexes at 298 K, 20 MHz, pH 7. In kind it is physicochemical. The settings on record: Table 5; 298 K, 20 MHz, pH 7; q=1 derivatives of the DTPA-monophosphonate backbone. The source says: As far as the relaxation enhancement property is concerned, a paramagnetic Gd(III) complex is characterized by its relaxivity (r1p) which represents the increase of the proton relaxation rate of an aqueous solution of the Gd(III) complex in comparison to the proton relaxation rate of neat water (R1^o). The relaxivity is usually measured at 298 K and 20 MHz (0.5 T).
In order to best evaluate the relaxivity properties and the parameters affecting the relaxivity of the agents of the invention, some comparative tests have been performed. In a first experiment, the relaxivity of a number of Gd-based chelated compounds having different molecular weight, all derived from the following [Gd(DTPA-monophosphonate)]^3− basic backbone structure (r1p at 20 MHz and 298K: 6.1 mM^−1s^−1) of formula
Tested compounds include the Gd-complex of the chelating compounds 1b and 2b of the invention (hereinafter Gd-1b and Gd-2b) as well as a number of different derivatives of the aforementioned backbone moiety selected in order to cover a range of molecular weights of up to about 1800 Dalton. The relaxivity of all of the tested compounds were measured at 298 K and 20 MHz and pH 7. The obtained values, listed in table 5 below (together with the structure of the compounds) have also been plotted against the MW of the complexes (see FIG. 1).
A second experiment was performed to test the relaxivity of different compounds of the invention, marketed NSA, known LDA and other systems, all containing one coordinated water molecule (q=1). The data were registered at 298K and 20 MHz and pH=7, and plotted against their corresponding MW. Relaxivity data relating to LDA P760 and P792 (LDA contrast agents) are based on literature cited below.
In addition to the above, please find below as per table 7, other relaxivity values, measured as above indicated, for some other representative compounds of the invention.
Take `O=C(O)CN(CCN(CCN(CC(=O)O)[C@@H](Cc1c[nH]c2ccccc12)C(=O)O)CP(=O)(O)O)C(Cc1c[nH]c2ccccc12)C(=O)O` (stereo partly drawn) [B 22836]: the “R1p” value is 7.9 mM⁻¹ s⁻¹.

Turning to `O=C(O)CN(CCN(CCN(CC(=O)O)[C@@H](COCc1ccccc1)C(=O)O)CP(=O)(O)O)[C@@H](COCc1ccccc1)C(=O)O` [B 22666], the “R1p” value worked out at 7.9 mM⁻¹ s⁻¹. Turning to `O=C(O)CN(CCN(CCN(CC(=O)O)[C@@H](Cc1ccccc1)C(=O)O)CP(=O)(O)O)[C@@H](Cc1ccccc1)C(=O)O` [B 22606], the “R1p” value stood at 7.7 mM⁻¹ s⁻¹.

The data set is the same for the next values; noted with them: Table 6; 298K, 20 MHz, pH=7; q=1.
As to `O=C(CCC(C(=O)O)N1CCN(C(CCC(=O)NCC(COC(CO)CO)COC(CO)CO)C(=O)O)CCN(C(CCC(=O)NCC(COC(CO)CO)COC(CO)CO)C(=O)O)CCN(C(CCC(=O)NCC(COC(CO)CO)COC(CO)CO)C(=O)O)CC1)NCC(COC(CO)CO)COC(CO)CO` (stereo not drawn) [Gd-1c], the “R1p” value stood at 13.84 mM⁻¹ s⁻¹. `O=C(O)CN(CCN(CC(=O)O)CC(=O)O)CCN(CC(=O)O)CC(=O)O` [Gd-DTPA]: the “R1p” value came out at 4.7 mM⁻¹ s⁻¹. Consider `O=C(O)CN1CCN(C(COCc2ccccc2)C(=O)O)CCN(CC(=O)O)CCN(C(COCc2ccccc2)C(=O)O)CC1` (stereo not drawn) [Compound B19236], for which the “R1p” value was determined as 6.5 mM⁻¹ s⁻¹. As to `O=C(O)CN1CCN(CC(=O)O)CCN(CC(=O)O)CCN(CC(=O)O)CC1` [Gd-DOTA], the “R1p” value came to 4.7 mM⁻¹ s⁻¹. As for `O=C(O)CN1CCN(C(COCc2ccccc2)C(=O)O)CCN(C(COCc2ccccc2)C(=O)O)CCN(C(COCc2ccccc2)C(=O)O)CC1` (stereo not drawn) [Compound B19406], the “R1p” value is 7.5 mM⁻¹ s⁻¹. Turning to `O=C(CCC(C(=O)O)N1CCN(C(CCC(=O)NCC(COCC(COC(CO)CO)COC(CO)CO)COCC(COC(CO)CO)COC(CO)CO)C(=O)O)CCN(C(CCC(=O)NCC(COCC(COC(CO)CO)COC(CO)CO)COCC(COC(CO)CO)COC(CO)CO)C(=O)O)CCN(C(CCC(=O)NCC(COCC(COC(CO)CO)COC(CO)CO)COCC(COC(CO)CO)COC(CO)CO)C(=O)O)CC1)NCC(COCC(COC(CO)CO)COC(CO)CO)COCC(COC(CO)CO)COC(CO)CO` (stereo not drawn) [Gd-3c], the “R1p” value was found to be 19.6 mM⁻¹ s⁻¹.

Consider `O=C(O)CN1CCN(CC(=O)O)CCN(C(COCc2ccccc2)C(=O)O)CCN(CC(=O)O)CC1` (stereo not drawn) [Compound B19106], for which the “R1p” value turned out to be 5.5 mM⁻¹ s⁻¹.

As to `CC(CO)(CO)COCC(CNC(=O)CCC(C(=O)O)N1CCN(C(CCC(=O)NCC(COCC(C)(CO)CO)COCC(C)(CO)CO)C(=O)O)CCN(C(CCC(=O)NCC(COCC(C)(CO)CO)COCC(C)(CO)CO)C(=O)O)CCN(C(CCC(=O)NCC(COCC(C)(CO)CO)COCC(C)(CO)CO)C(=O)O)CC1)COCC(C)(CO)CO` (stereo not drawn) [Gd-2c], the “R1p” value came to 15 mM⁻¹ s⁻¹.

Staying with this data set, now noted: Table 7; measured as above indicated (298 K, 20 MHz).
As for `O=C(O)CCC(C(=O)O)N1CCN(Cc2cccc(C(=O)NCC(CNC(=O)C(O)C(O)C(O)C(O)CO)(CNC(=O)C(O)C(O)C(O)C(O)CO)CNC(=O)C(O)C(O)C(O)C(O)CO)c2)CCN(C(CCC(=O)O)C(=O)O)CCN(C(CCC(=O)O)C(=O)O)CC1` (stereo not drawn) [Gd-1d], the “R1p” value stood at 24 mM⁻¹ s⁻¹. `O=C(CC[C@@H](C(=O)O)N1CCN([C@@H](CCC(=O)NC(COC2OC(CO)C(O)C(O)C2O)(COC2OC(CO)C(O)C(O)C2O)COC2OC(CO)C(O)C(O)C2O)C(=O)O)CCN([C@@H](CCC(=O)NC(COC2OC(CO)C(O)C(O)C2O)(COC2OC(CO)C(O)C(O)C2O)COC2OC(CO)C(O)C(O)C2O)C(=O)O)CCN([C@@H](CCC(=O)NC(COC2OC(CO)C(O)C(O)C2O)(COC2OC(CO)C(O)C(O)C2O)COC2OC(CO)C(O)C(O)C2O)C(=O)O)CC1)NC(COC1OC(CO)C(O)C(O)C1O)(COC1OC(CO)C(O)C(O)C1O)COC1OC(CO)C(O)C(O)C1O` (stereo partly drawn) [Gd-7c]: the “R1p” value was determined as 20.4 mM⁻¹ s⁻¹. In the case of `CC1(N(CC(=O)O)CC(=O)O)CN(C(CCC(=O)N(CCN(CCC(=O)NC(CO)(CO)CO)CCC(=O)NC(CO)(CO)CO)CCN(CCC(=O)NC(CO)(CO)CO)CCC(=O)NC(CO)(CO)CO)C(=O)O)CCN(C(CCC(=O)N(CCN(CCC(=O)NC(CO)(CO)CO)CCC(=O)NC(CO)(CO)CO)CCN(CCC(=O)NC(CO)(CO)CO)CCC(=O)NC(CO)(CO)CO)C(=O)O)C1` (stereo not drawn) [Gd-15a], the “R1p” value was 16.7 mM⁻¹ s⁻¹.

The nature of the next data set: 1/T1 NMRD profiles / relaxivity over a range of magnetic field strengths. In kind it is physicochemical. The conditions noted are these: 25° C., 1 mM aqueous solution; from 0.2 to 3 MHz. The text has this:
As an example, the relaxivity profile of the gadolinium complex of the chelating ligand of the invention 2b (hereinafter referred to as Gd-2b), in the above magnetic field range, has been compared with that of a marketed NSA, i.e. Magnevist®, and that of a blood pool agent, i.e. the macromolecular adduct between Gd-DTPA(BOM)3 and BSA (Bovine Serum Albumin) (FIG. 6).
The corresponding profile for the above blood pool agent is quite different.
The stability of the relaxivity properties shown by the compounds of the invention was tested. In a first experiment, the 1/T1 NMRD profiles for some compounds of the invention were acquired over a range of magnetic field strengths ranging from 0.01 to 130 MHz. The profile shown by the Gd-1b chelated compound of the invention is included in FIG. 4, while corresponding profiles for chelated compounds Gd-1c, Gd-2c and Gd-3c are included in FIGS. 5 and 5 bis. A comparison has been also performed for compound Gd-2b over a corresponding profile registered for GD-DTPA (Magnevist®), a marketed NSA, and for GD-DOTA-BSA, a well known blood pool agent.
Conversely, the relaxivity improvement shown by the blood pool agent rapidly falls dawn over the same range of magnetic field strength.
As to Gd-DTPA, the “relaxivity profile over magnetic field strength (NMRD)” value is “quite stable though very low”.
